“And” between values parts separate entries of the source, which are not always exact repeats. Identical values can stand only once. Counter-ions that a name gives are not always drawn.
Tests used:
[1] = biological target: T1, ferroportin (Fpn) (Mus musculus, UniProt Q9JHI9); assay: Hepcidin Internalization Assay (J774); type: cell-based; conditions: average of multiple measurements; inhibition of TMR-hepcidin (25 nM) internalization into J774 cells; read-out: J774 IC50
T1 construct: host or cells: J774 mouse macrophage cell line, Fe(III)-NTA induced
T1 sequence (Q9JHI9 1-570): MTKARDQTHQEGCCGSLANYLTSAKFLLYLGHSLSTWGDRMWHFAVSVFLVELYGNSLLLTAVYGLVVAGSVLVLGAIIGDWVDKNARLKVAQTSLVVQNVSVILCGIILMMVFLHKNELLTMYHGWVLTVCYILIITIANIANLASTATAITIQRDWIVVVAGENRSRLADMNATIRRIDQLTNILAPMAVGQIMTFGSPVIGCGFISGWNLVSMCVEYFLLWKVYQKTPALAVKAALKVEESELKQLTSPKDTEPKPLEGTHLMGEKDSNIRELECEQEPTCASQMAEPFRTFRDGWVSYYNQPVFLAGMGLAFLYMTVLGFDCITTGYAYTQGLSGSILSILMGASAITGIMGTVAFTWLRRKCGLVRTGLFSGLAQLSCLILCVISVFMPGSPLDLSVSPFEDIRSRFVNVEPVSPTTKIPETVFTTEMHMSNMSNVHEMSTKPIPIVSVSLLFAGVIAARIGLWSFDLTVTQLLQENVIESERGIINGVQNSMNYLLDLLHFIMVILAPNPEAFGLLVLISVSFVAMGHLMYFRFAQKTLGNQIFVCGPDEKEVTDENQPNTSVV
Procedure, shortened: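 Inhibition of fluorescent TMR-hepcidin uptake via ferroportin was imaged in fixed J774 cells after a 2 h, 37 °C co-incubation with compound dilutions; cells were pre-cultured overnight with 200 μM Fe(III)NTA. Internalized TMR signal per cell (Sum(Mean)) was fitted as log(inhibitor) vs. response for IC50, in triplicate.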

[2] = biological target: T2, human Fpn (Homo sapiens, UniProt Q9NP59); assay: Biophysical Ferroportin-Hepcidin Binding Assay (fluorescence polarization); conditions: average of multiple measurements; 1 μM human Fpn, 20 nM TMR-hepcidin; read-out: FP IC50
T2 construct: FLAG (C); made in house; host or cells: Pichia pastoris
T2 sequence (Q9NP59 1-571): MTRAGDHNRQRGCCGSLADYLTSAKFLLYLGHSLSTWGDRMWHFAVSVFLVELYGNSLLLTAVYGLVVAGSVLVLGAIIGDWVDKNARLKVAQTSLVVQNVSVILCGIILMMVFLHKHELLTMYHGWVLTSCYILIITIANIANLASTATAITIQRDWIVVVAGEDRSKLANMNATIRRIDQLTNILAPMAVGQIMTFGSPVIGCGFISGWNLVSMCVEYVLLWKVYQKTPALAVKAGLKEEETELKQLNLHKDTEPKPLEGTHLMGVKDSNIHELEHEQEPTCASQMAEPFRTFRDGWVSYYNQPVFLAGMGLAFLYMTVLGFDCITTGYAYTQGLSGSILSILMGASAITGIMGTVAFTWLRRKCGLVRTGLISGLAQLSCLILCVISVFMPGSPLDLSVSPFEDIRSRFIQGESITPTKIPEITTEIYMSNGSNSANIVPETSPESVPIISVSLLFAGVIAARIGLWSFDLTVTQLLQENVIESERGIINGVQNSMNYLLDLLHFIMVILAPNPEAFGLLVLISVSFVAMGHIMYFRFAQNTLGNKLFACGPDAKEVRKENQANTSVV
Procedure, shortened: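 FP readout: a dose-dependent drop in TMR-hepcidin polarization (mP, from parallel and perpendicular emission) marked blocked binding to FLAG-tagged human Fpn purified from Pichia pastoris. Final levels were 1 μM Fpn and 20 nM TMR-hepcidin, with compound dilutions in duplicate, incubated 90 min at room temperature.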

[3] = biological target: T3, human Fpn-GFP fusion (Homo sapiens, UniProt Q9NP59); assay: Ferroportin Internalization and Degradation Assay (FACS); type: cell-based; conditions: average of multiple measurements, Fpn-GFP MFI, HEK-293 cell line #354, FACS; for DC50: read-out: EC50 ferroportin internalization and degradation
T3 construct: expressed in transfected cells; host or cells: HEK-293 cell line #354 (derivative of HEK-293 Tet-ON Advanced, Clontech)
T3 sequence (Q9NP59 1-571): T2 sequence (Q9NP59 1-571)
Description: Growing HEK-293 #354 cells in doxycycline containing media induced expression of human Fpn-GFP fusion protein on the cell surface. […] Small molecular weight Fpn inhibitor compounds were tested for dose-dependent effects on the Fpn-GFP mean fluorescence intensity (MFI) on HEK-293 cell line #354, as described below. HEK #354 cells were harvested from ca. 80% confluent cultures, seeded at 0.6×10^6 (cells/ml in DMEM/F12 GlutaMAX™ medium (Invitrogen, Cat. 31331-028) containing 10% FBS (Clontech, Cat. 631106), 1% Penicillin-Streptomycin (Invitrogen, Cat. 15140-122), 200 μg/ml Hygromycin B (Invitrogen, Cat. 10687-010), Blasticidin 5 μg/ml, (Invitrogen, Cat. R210-01), 4 μg/ml doxycycline (Clontech, Cat. 631311), 50 μl per well of 384 well plates (Greiner; Cat. 781091) and grown at 37° C. with 5% CQ. After overnight incubation, 10 μl/well of dilution series of the test compounds were added in quadruplicates and plates were further incubated overnight at 37° C. with 5% CO2. Cells were washed once with FACS buffer (PBS containing 1% FBS, 2 mM EDTA and 0.05% NaN3), harvested in FACS buffer with 0.5 μg/ml propidium iodide (Sigma, Cat. P4864) and analyzed in a flow cytometer (CANTO™ II, BD Biosciences) equipped with high throughput sampler. Live HEK #354 cells were gated as propidium iodide negative population and analyzed for expression of Fpn-GFP.

SMILES	IC50 [1] [µM]	IC50 [2] [µM]	DC50 [3] [µM]	EC50 [3]
O=C(NCc1ccccc1)c1csc(CCNCc2nc3ccccc3[nH]2)n1 [Example 1]	0.5	0.49	4.66	–
O=C(NCc1ncccc1F)c1cccc(CCNCc2nc3ccccc3[nH]2)n1 [Example 133]	4.56	2.5	20.7	–
O=C(NCc1ncccc1F)c1csc(CCN(Cc2nc3ccccc3[nH]2)Cc2nc3ccccc3[nH]2)n1 [Example 166]	1.12	0.37	–	> 20 µM and < 50 µM
O=C(Cn1cc(C(=O)NCc2ncccc2F)cn1)NCCc1nc2ccccc2[nH]1 [Example 117]	9.7	9	–	> 25 µM and < 50 µM
O=C(NCc1ncccc1F)c1csc(CCCNc2nc3ccccc3[nH]2)n1 [Example 135]	3.41	36.9	–	21.2 µM
O=C(NCc1ncccc1F)c1cnn(C2CN(Cc3nc4ccccc4[nH]3)C2)c1 [Example 136]	> 10.5	6.85	–	17.9 µM

The next lines start with the values.

IC50 [1] [µM]	IC50 [2] [µM]	DC50 [3] [µM]	EC50 [3]	SMILES
0.533	0.56	0.813	–	O=C(NCc1ncccc1F)c1cccc(CCN(CCc2nc3ccccc3[nH]2)CCc2nc3ccccc3[nH]2)n1 [Example 147]
–	–	–	4.14 µM	O=C(NCc1ncccc1F)c1csc([C@H]2[C@@H]3CN(Cc4nc5ccccc5[nH]4)C[C@@H]32)n1 [Example Compound No. 213, 2-[(1R,5S,6S)-3-(1H-1,3-Benzodiazol-2-ylmethyl)-3-azabicyclo[3.1.0]hexan-6-yl]-N-[(3-fluoropyridin-2-yl)methyl]-1,3-thiazole-4-carboxamide Trihydrochloride]
3.11	1.3	25.3	–	O=C(NCc1ncccc1F)c1cccc(CCNCCc2nc3ccccc3[nH]2)n1 [Example 146]
4.79	63.1	–	> 20 µM and < 50 µM	O=C(NCc1ncccc1F)c1csc(CCNCc2ccc3nc[nH]c3c2)n1 [Example 139]
3.73	6.9	–	> 20 µM and < 50 µM	O=C(NCc1ncccc1F)c1csc(CCNCc2cccc3nc[nH]c23)n1 [Example 140]
2.23	2.9	14.4	–	O=C(NCC1CCCCN1)c1csc(CCNCc2nc3ccccc3[nH]2)n1 (stereo not shown) [Example 185]
